How the values were obtained:
[1] = tested on: HCT116 cells; test: Assay 3: HCT116 (Kras) GI50 assay (Cell Titer-Glo); assay type: cell-based; conditions: Homo sapiens, HCT-116, 72 hours
Method: Alternatively, the following procedure can be used to measure cell-based activity. Test compounds were dissolved in DMSO in 10 mM stock. Cell Titer-Glo® 2.0 Luminescent cell viability assay reagent was purchased from Promega (Madison, WI). A375 and HCT116 cell lines were purchased from American Type Culture Collection (Manassas, VA). For A375 cells, cell culture media was DMEM+10% FBS. For HCT116 cells, cell culture media was McCoy's 5A+10% FBS. All media were supplemented with 100 μg/mL of penicillin, and 100 μg/mL of streptomycin. Cultures were maintained at 37° C. in a humidified atmosphere of 5% CO2 and 95% air.
Test compounds were diluted in DMSO solution with 10-dose and 3-fold dilutions in a source plate starting at 10 mM. 25 nL of each test compound was delivered from the source plate to each well of the 384-well cell culture plates (T=Final) by Echo 550. 25 μL of culture medium containing 2000 of A375 or HCT116 cells was added to each of the wells in duplicates of the cell culture plates (T=0 and T=Final). 25 μL of Cell Titer Glo 2.0 reagent was added to each well of cell culture plate (T=0). The contents were mixed on an orbital shaker for 2 min and incubated at room temperature for 15 min to stabilize luminescent signal. Luminescence was recorded by Envision 2104 Multilabel Reader (PerkinElmer, Santa Clara, CA). The number of viable cells in culture was determined based on quantitation of the ATP present in each culture well. The cells in cell culture plate (T=Final) were incubated with the compounds at 37° C., 5% CO2 for 72 hours. 25 μL of Cell Titer Glo 2.0 reagent was added to each well. The contents were mixed on an orbital shaker for 2 min and incubated at room temperature for 15 min to stabilize luminescent signal. Luminescence was recorded by Envision 2104 Multilabel Reader (PerkinElmer, Santa Clara, CA). The number of viable cells in culture was determined based on quantitation of the ATP present in each culture well. The GI50 curves were plotted using the GraphPad Prism 4 program based on a sigmoidal dose-response equation Y=Bottom+(Top-Bottom)/(1+10^((Log EC50−X)*HillSlope)). All parameters in the equation were calculated by GraphPad Prism 4 program. […] Accordingly, GI50 is the value of 10^X, where X was calculated by the Curve Fitting Equation when Y=50 using Excel.
Assay 3 is the HCT116 (Kras) GI50 (nM) assay as described in Example 39. A3 indicates an IC50 of less than or equal to 5 μM, and B3 indicates an IC50 of greater than 5 μM and less than or equal to 10 μM.

[2] = Assay 4: liver S9 half-life stability assay; assay type: in vitro ADME; conditions: liver S9 fraction, pH 7.4; human liver S9, 1 μM test compound, NADPH
Method: Compounds can be assessed for metabolic stability in human skin by assessing their rate of disappearance from human S9 skin fraction. Similarly, compounds can be assessed for metabolic stability in human liver by assessing their rate of disappearance from human S9 liver fraction. The protocol below is used to assess the difference between skin and hepatic metabolism.
The assay was carried out in 96-well microtiter plates at 37° C. Reaction mixtures (25 μL) contained a final concentration of 1 μM test compound, 2 mg/mL liver or skin protein, and 1 mM NADPH in buffer (100 mM potassium phosphate, pH 7.4 buffer with 1 mM EDTA, 3 mM MgCl2). At each of the time points (0, 15, 30, and 60 minutes), 150 μL, of quench solution (100% acetonitrile with 0.1% formic acid) with internal standard was transferred to each well. […]
(§1) All samples were analyzed on LC/MS/MS using an AB Sciex API 4000 instrument, coupled to a Shimadzu LC-20AD LC Pump system. […]
(§2) The extent of metabolism was calculated as the disappearance of the test compound, compared to the 0-min control reaction incubations. Initial rates were calculated for the compound concentration and used to determine tin values and subsequently, the intrinsic clearance, CLint=(0.693)(1/t1/2 (min)) (mL incubation/mg of S9 protein). […]

[3] = Assay 6: liver microsomes half-life stability assay; assay type: in vitro ADME; conditions: pH 7.4; human liver microsomes, 1 μM test compound, NADPH
Method: Metabolic stability of testing compound can be evaluated using human liver microsomes to predict intrinsic clearance. Human liver microsomes are obtained from Corning Gentest.
The assay was carried out in 96-well microtiter plates at 37° C. Reaction mixtures (25 μL) contain a final concentration of 1 μM test compound, 0.5 mg/mL liver microsomes protein, and 1 mM NADPH in buffer (100 mM potassium phosphate, pH 7.4 buffer with 3 mM MgCl2). At each of the time points (0, 15, 30, and 60 minutes), 150 μL of quench solution (100% acetonitrile with 0.1% formic acid) with internal standard was transferred to each well. Verapamil was included as a positive control to verify assay performance. Plates were sealed and centrifuged at 4° C. for 15 minutes at 4000 rpm. The supernatant was transferred to fresh plates for LC/MS/MS analysis.
as §1
as §2, with “time incubation.” for “control reaction incubations.”, “t1/2” for “tin”, “(min))(g of liver/kg of body weight)(mL” for “(min)) (mL”, “microsomal protein)(45 mg of microsomal protein/g of liver weight).” for “S9 protein).”

Q: With `O=C1CCCc2c1sc(Nc1ccc(I)cc1F)c2C(=O)NOCCO` [Compound 1.029, 2-((2-Fluoro-4-iodophenyl)amino)-N-(2-hydroxyethoxy)-7-oxo-4,5,6,7-tetrahydrobenzo[b]thiophene-3-carboxamide] as the compound, how does the GI50 [1] read?
A: ≤ 5 µM

Q: What about the half-life at 1 μM [2] of the same compound?
A: 50 to 100 min

Q: What about the half-life at 1 μM [3] of the same compound?
A: ≤ 50 min

From patent US12466818B2, “Thienyl-aniline compounds for treatment of dermal disorders” (NFlection Therapeutics, Inc., priority 2018, dated 2025)
